Test results taken from patent publication US20250368645A1, “BETA CARBOLINE ANALOGUES AS SELECTIVE AND BIASED KAPPA OPIOID RECEPTORS AGONISTS FOR TREATING VARIOUS ASSOCIATED PATHOPHYSIOLOGICAL CONDITIONS” (COUNCIL OF SCIENTIFIC AND INDUSTRIAL RESEARCH, priority 2022, published 2025).
Read-outs that look alike come from different tables or passages of the source.

What was measured:
[1] = tested on: paclitaxel (PTX)-treated mice; assay: Paclitaxel-induced peripheral neuropathy model; type: in vivo; conditions: 8abd 5 and 10 mg/kg p.o.; duloxetine 10 mg/kg; 16 days
human KOR [2] = molecular target: T1, human KOR (Homo sapiens, UniProt P41145); assay: GloSensor assay, Gi-mediated cAMP inhibition in HEK-293T cells transfected with human KOR; type: cell-based; conditions: for G-Protein Bias factor (IC50 -Glosensor/- EC50 - Tango): KOR, GloSensor versus Tango;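 as to agonist at KOR (pIC50): value taken from a statement in the text not a table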
Target sequence in this assay (P41145 whole entry): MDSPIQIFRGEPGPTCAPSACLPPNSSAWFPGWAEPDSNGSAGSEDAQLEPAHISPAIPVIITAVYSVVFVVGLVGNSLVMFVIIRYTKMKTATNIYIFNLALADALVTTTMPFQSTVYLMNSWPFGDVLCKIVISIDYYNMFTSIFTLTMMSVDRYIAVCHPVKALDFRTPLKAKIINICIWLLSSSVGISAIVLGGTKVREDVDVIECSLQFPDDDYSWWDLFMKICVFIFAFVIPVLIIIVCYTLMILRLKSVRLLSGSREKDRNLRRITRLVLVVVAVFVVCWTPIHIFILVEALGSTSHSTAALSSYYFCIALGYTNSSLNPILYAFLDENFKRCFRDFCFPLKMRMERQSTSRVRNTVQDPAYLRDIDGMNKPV

MOR = MOR (Homo sapiens, UniProt P35372); assay: GloSensor assay at MOR; type: cell-based; conditions: given as Log IC50 (negative values)
DOR = DOR (Homo sapiens, UniProt P41143); assay: GloSensor assay at DOR; type: cell-based; conditions: given as Log IC50 (negative values)
human KOR [3] = molecular target: T1, human KOR; assay: β-arrestin2 Tango assay in HTLA cells transiently transfected with human KOR; type: cell-based; conditions: Table 2, KOR; for EC50: read-out: B-arrestin Tango Assay (pEC50) (converted)
Target sequence in this assay (P41145 whole entry, added parts left off): as the sequence (P41145 whole entry) above

[4] = Table 2, KOR, read-out: GloSensor Assay (pIC50) (converted)
[5] = given as Log IC50 (negative values), agonist activity, inhibition of FSK-stimulated cAMP, read-out: GloSensor Assay (Log IC50) KOR (converted)
[6] = read-out: agonist at KOR (pIC50) (converted)

DOR, sequence (P41143 whole entry): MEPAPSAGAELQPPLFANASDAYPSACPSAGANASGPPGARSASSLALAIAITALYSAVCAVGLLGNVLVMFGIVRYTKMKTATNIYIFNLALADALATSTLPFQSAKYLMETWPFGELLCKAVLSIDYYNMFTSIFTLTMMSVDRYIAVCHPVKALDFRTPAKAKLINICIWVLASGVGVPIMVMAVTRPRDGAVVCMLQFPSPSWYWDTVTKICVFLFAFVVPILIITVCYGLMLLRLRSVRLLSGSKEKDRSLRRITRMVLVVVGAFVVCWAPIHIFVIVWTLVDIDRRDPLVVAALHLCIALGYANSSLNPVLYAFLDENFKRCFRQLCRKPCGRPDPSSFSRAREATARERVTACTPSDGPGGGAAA
MOR, sequence (P35372 whole entry): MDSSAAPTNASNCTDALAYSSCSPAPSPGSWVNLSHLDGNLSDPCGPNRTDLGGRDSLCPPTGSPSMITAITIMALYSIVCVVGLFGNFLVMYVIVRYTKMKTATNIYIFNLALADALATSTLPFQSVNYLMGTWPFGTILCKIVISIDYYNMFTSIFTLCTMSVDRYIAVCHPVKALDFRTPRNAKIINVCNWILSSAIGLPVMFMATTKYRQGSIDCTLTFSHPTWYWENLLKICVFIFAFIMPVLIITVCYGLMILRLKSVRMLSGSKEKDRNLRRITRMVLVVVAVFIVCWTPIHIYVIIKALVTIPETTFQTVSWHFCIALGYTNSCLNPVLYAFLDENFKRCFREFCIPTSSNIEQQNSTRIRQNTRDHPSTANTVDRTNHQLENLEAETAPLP

Molecule | mechanical pain (mechanical hyperalgesia, Von frey hair test), chronic administration [1] | thermal hyperalgesia (Hargreaves test), chronic administration [1] | G-Protein Bias factor (IC50 -Glosensor/- EC50 - Tango) (human KOR [2]) | IC50 (human KOR [2]; [4]) [nM] | IC50 (human KOR [2]; [5]) [nM] | IC50 (human KOR [2]; [6]) [nM] | IC50 (MOR) [nM] | IC50 (DOR) [nM] | EC50 (human KOR [3]) [nM] | GloSensor Assay (pIC50) (human KOR [2]; Table 2, KOR) | GloSensor Assay (Log IC50) KOR (human KOR [2]; given as Log IC50 (negative values), agonist activity, inhibition of FSK-stimulated cAMP) | GloSensor Assay (Log IC50) MOR (MOR) | GloSensor Assay (Log IC50) DOR (DOR) | B-arrestin Tango Assay (pEC50) (human KOR [3])
CNCC[C@H](Oc1cccc2ccccc12)c1cccs1 [duloxetine, reference compound] | significantly improved | significantly improved | – | – | – | – | – | – | – | – | – | – | – | –
Brc1ccc(-n2c[n+]3ccc4c5ccccc5[nH]c4c3c2-c2ccccc2Br)cc1.[Cl-] [8acb, 1-(2-Bromophenyl)-2-(4-bromophenyl)-2,11-dihydroimidazo[1′,5′:1,2]pyrido[3,4-b]indol-4-ium chloride] | – | – | 3.6 | 0.115 | 2.51 | < 31.6 | > 10000 | > 10000 | 457 | – | – | – | – | –
Clc1ccc(-n2c[n+]3ccc4c5ccccc5[nH]c4c3c2-c2ccccc2Br)cc1.[Cl-] [8acc, 1-(2-Bromophenyl)-2-(4-chlorophenyl)-2,11-dihydrolmidazo[1′,5′:1,2]pyrido[3,4-b]indol-4-ium] | – | – | 2.89 | 0.589 | 1.58 | < 31.6 | 2000 | 3980 | 457 | – | – | – | – | –
Fc1ccc(-n2c[n+]3ccc4c5ccccc5[nH]c4c3c2-c2ccccc2Cl)cc1.[Cl-] [8aed, 1-(2-Chlorophenyl)-2-(4-fluorophenyl)-2,11-dihydroimidazo[1′,5′:1,2]pyrido[3,4-b]indol-4-ium chloride] | – | – | 1.06 | 10 | 10 | < 31.6 | > 10000 | > 10000 | 115 | – | – | – | – | –
Cc1ccc(-c2c3c4[nH]c5ccccc5c4cc[n+]3cn2-c2ccc(F)cc2)cc1.[Cl-] [8akd, 2-(4-Fluorophenyl)-1-(p-tolyl)-2,11-dihydroimidazo[1′,5′:1,2]pyrido[3,4-b]indol-4-ium chloride] | – | – | 3.15 | 0.641 | 1.58 | < 31.6 | > 10000 | > 10000 | 916 | – | – | – | – | –
2-(4-Fluorophenyl)-1-(4-methoxyphenyl)-2,11-dihydroimidazo[1′,5′:1,2]pyrido[3,4-b]indol-4-ium [8aod] | – | – | 1.68 | – | – | – | – | – | – | 7.9 | −7.9 | >−5 | >−5 | 6.22
Clc1ccc(-c2c3c4[nH]c5ccccc5c4cc[n+]3cn2-c2ccc(Br)cc2)cc1.[Cl-] [8adb, 2-(4-Bromophenyl)-1-(4-chlorophenyl)-2,11-dihydroimidazo[1′,5′:1,2]pyrido[3,4-b]indol-4-ium chloride] | – | – | 1.44 | 20 | 20 | < 31.6 | > 10000 | > 10000 | 550 | – | – | – | – | –
Clc1ccc(-c2c3c4[nH]c5ccccc5c4cc[n+]3cn2-c2ccc(Cl)cc2)cc1.[Cl-] [8adc, 1,2-Bis(4-chlorophenyl)-2,11-dihydrolmidazo[1′,5′:1,2]pyrido[3,4-b]indol-4-ium chloride] | – | – | 3.28 | 0.501 | 1.58 | < 31.6 | > 10000 | > 10000 | 955 | – | – | – | – | –
Brc1ccc(-c2c3c4[nH]c5ccccc5c4cc[n+]3cn2-c2cccc(Br)c2)cc1.[Cl-] [8abe, 2-(3-Bromophenyl)-1-(4-bromophenyl)-2,11-dihydroimidazo[1′,5′:1,2]pyrido[3,4-b]indol-4-ium chloride] | – | – | 1.72 | 12.9 | 1.26 | < 31.6 | > 10000 | > 10000 | 676 | – | – | – | – | –
Clc1ccc(-n2c[n+]3ccc4c5ccccc5[nH]c4c3c2-c2ccc(Br)cc2)cc1.[Cl-] [8abc, 1-(4-Bromophenyl)-2-(4-chlorophenyl)-2,11-dihydromidazo[1′,5′:1,2]pyrido[3,4-b]indol-4-ium chloride] | – | – | 2.35 | 1.12 | 0.631 | < 31.6 | > 10000 | > 10000 | 251 | – | – | – | – | –
Clc1ccc(-n2c[n+]3ccc4c5ccccc5[nH]c4c3c2-c2ccccc2Cl)cc1.[Cl-] [8aec, 1-(2-Chlorophenyl)-2-(4-chlorophenyl)-2,11-dihydroimidazo[1′,5′:1,2]pyrido[3,4-b]indol-4-ium chloride] | – | – | 1.23 | 7.94 | 7.94 | < 31.6 | 501 | > 10000 | 135 | – | – | – | – | –
Fc1ccc(-n2c[n+]3ccc4c5ccccc5[nH]c4c3c2-c2ccc(Cl)cc2)cc1.[Cl-] [8add, 1-(4-Chlorophenyl)-2-(4-fluorophenyl)-2,11-dihydroimidazo[1′,5′:1,2]pyrido[3,4-b]indol-4-ium chloride] | – | – | 2.67 | 2.94 | 3.98 | < 31.6 | > 10000 | > 10000 | 1380 | – | – | – | – | –
Fc1ccc(-n2c[n+]3ccc4c5ccccc5[nH]c4c3c2-c2ccccc2Br)cc1.[Cl-] [8acd, 1-(2-Bromophenyl)-2-(4-fluorophenyl)-2,11-dihydroimidazo[1′,5′:1,2]pyrido[3,4-b]indol-4-ium chloride] | – | – | 3 | 1.58 | 1.58 | < 31.6 | > 10000 | > 10000 | 1580 | – | – | – | – | –
COc1ccc(-n2c[n+]3ccc4c5ccccc5[nH]c4c3c2-c2ccc(Br)cc2)cc1 [8abg, 1-(4-Bromophenyl)-2-(4-methoxyphenyl)-2,11-dihydrolmidazo[1′,5′:1,2]pyrido[3,4-b]indol-4-ium chloride] | – | – | – | – | > 10000 | – | > 10000 | > 10000 | – | – | – | – | – | –
Fc1cccc(-c2c3c4[nH]c5ccccc5c4cc[n+]3cn2-c2ccc(Cl)cc2)c1 [8aic, 2-(4-Chlorophenyl)-1-(3-fluorophenyl)-2,11-dihydrolmidazo[1′,5′:1,2]pyrido[3,4-b]indol-4-ium chloride] | – | – | – | – | 91.2 | – | > 10000 | > 10000 | – | – | – | – | – | –
FC(F)(F)Oc1ccc(Cn2c[n+]3ccc4c5ccccc5[nH]c4c3c2-c2ccc(Cl)cc2)cc1 [9abh, 1-(4-Chlorophenyl)-2-(4-(trifluoromethoxy)benzyl)-2,11-dihydroimidazo[1′,5′:1,2]pyrido[3,4-b]indol-4-ium chloride] | – | – | – | – | > 10000 | – | > 10000 | > 10000 | – | – | – | – | – | –
c1ccc(-c2c3c4[nH]c5ccccc5c4cc[n+]3cn2-c2ccccc2)cc1 [8aaa, 1,2-Diphenyl-2,11-dihydroimidazo[1′,5′:1,2]pyrido[3,4-b]indol-4-ium chloride] | – | – | – | – | > 10000 | – | > 10000 | > 10000 | – | – | – | – | – | –
Brc1cccc(-n2c[n+]3ccc4c5ccccc5[nH]c4c3c2-c2ccccc2)c1 [8aae, 2-(3-Bromophenyl)-1-phenyl-2,11-dihydrolmidazo[1′,5′:1,2]pyrido[3,4-b]indol-4-ium chloride] | – | – | – | – | > 10000 | – | > 10000 | > 10000 | – | – | – | – | – | –
Brc1ccc2[nH]c3c(cc[n+]4cn(-c5ccccc5)c(-c5ccccc5Br)c34)c2c1 [8cca, 8-Bromo-1-(2-bromophenyl)-2-phenyl-2,11-dihydrolmidazo[1′,5′:1,2]pyrido[3,4-b]indol-4-ium chloride] | – | – | – | – | > 10000 | – | > 10000 | > 10000 | – | – | – | – | – | –
COc1ccc(Cn2c[n+]3ccc4c5ccccc5[nH]c4c3c2-c2ccc(Br)cc2)cc1 [9aae] | – | – | – | – | 3310 | – | > 10000 | > 10000 | – | – | – | – | – | –
Clc1ccc(-c2c3c4[nH]c5ccccc5c4c4ccccc4[n+]3cn2-c2ccc(Cl)cc2)cc1 [12dd, 1,2-Bis(4-chlorophenyl)-2,13-dihydroimidazo[1,5-a]indolo[2,3-c]quinolin-4-ium chloride] | – | – | – | – | > 10000 | – | > 10000 | > 10000 | – | – | – | – | – | –
COc1ccc(Cn2c[n+]3ccc4c5ccccc5[nH]c4c3c2-c2ccc(Cl)cc2)cc1OC [9abg, 1-(4-Chlorophenyl)-2-(3,4-dimethoxybenzyl)-2,11-dihydroimidazo[1′,5′:1,2]pyrido[3,4-b]indol-4-ium chloride] | – | – | – | – | 955 | – | > 10000 | > 10000 | – | – | – | – | – | –
